Source: US11753418B2, “Compounds for the modulation of Myc activity” (Syros Pharmaceuticals, Inc., priority 2015, dated 2023)
Structures can show the parent of a compound that is named as a salt.

What follows are compounds tested against T1, c-Myc/Max/Ebox DNA (Homo sapiens, UniProt P01106) (assay: c-Myc/Max/Ebox DNA AlphaScreen Assay). Settings: free c-Myc 20 nM, his6-Max 5 nM, biotinylated Ebox oligo 10 nM, 2 hour incubation.
T1 construct: his6 (cleaved yes)
Format: binding
Procedure: Compounds of the invention were assayed for c-Myc/Max/EBox activity as described in the following protocol. Human his6-c-Myc and his6-Max were used with biotinylated DNA containing a single Ebox sequence (biotin[…]) purchased from MWG Operon. Free c-Myc was generated from his6-c-Myc through thrombin cleavage of the his6 tag. For 384-well plate assays, 10 μL of a 2× solution of free c-Myc (20 nM final), Ni^2+ coated Acceptor Beads (25 μg/ml final), and biotinylated Ebox oligo (10 nM final) were added to 384-well plates with a Biotek EL406 liquid handler. 50 nL of compounds from stock plates were added by pin transfer using a Janus Workstation (PerkinElmer), allowing the compounds to interact with c-Myc prior to c-Myc binding with Max. In the current assay, DMSO was not allowed to exceed 2% v/v of the assay. 10 μl of 2× master mix containing streptavidin-coated donor beads (25 μg/ml final) and his6-Max (5 nM) were added. AlphaScreen measurements were performed on an Envision plate reader (PerkinElmer) utilizing the manufacturer's protocol.
Both master mixes were made in room temperature assay buffer (50 mM HEPES, 150 mM NaCl, 0.2% w/v BSA, 0.02% w/v Tween20, 40 μg/ml glycogen, 500 μM DTT, pH 8.0, wherein both DTT and glycogen were added fresh). Alpha beads were added to respective master solutions. All subsequent steps were performed in low light conditions. Solution 1: 2× solution of components with final concentrations of c-Myc Ni-coated Acceptor Beads (25 μg/ml), and biotinylated Ebox oligo (10 nM). Solution 2: 2× solution of streptavidin-coated donor beads (25 μg/ml final) and his6-Max […]. Solution 1 was added to 384-well plate (AlphaPlate-384, PerkinElmer) with Biotek EL406 liquid handler and the plates were centrifuged very briefly. 50 nL of compounds from stock plates were added by pin transfer using a Janus Workstation. Solution 2 (10 μL) was added with the liquid handler. Plates were sealed with foil to block light exposure and prevent evaporation. Plates were very briefly centrifuged followed by 2 hour incubation. AlphaScreen measurements were performed on an Envision 2104 utilizing the manufacturer's protocol. Excitation was at 680 nm for donor bead release of singlet oxygen and emission was read with a bandpass filter from 520-620 nm. Glycogen: Roche Diagnostics #10901393001. Plate 1536: Perkin Elmer, 6004350. Plate 384: Perkin Elmer, 6005350. Nickel-His Alpha Beads: 6760619R. The data from this assay are summarized in Table 3 below (Myc/Max/DNA Activity).

T1 sequence (P01106 whole entry): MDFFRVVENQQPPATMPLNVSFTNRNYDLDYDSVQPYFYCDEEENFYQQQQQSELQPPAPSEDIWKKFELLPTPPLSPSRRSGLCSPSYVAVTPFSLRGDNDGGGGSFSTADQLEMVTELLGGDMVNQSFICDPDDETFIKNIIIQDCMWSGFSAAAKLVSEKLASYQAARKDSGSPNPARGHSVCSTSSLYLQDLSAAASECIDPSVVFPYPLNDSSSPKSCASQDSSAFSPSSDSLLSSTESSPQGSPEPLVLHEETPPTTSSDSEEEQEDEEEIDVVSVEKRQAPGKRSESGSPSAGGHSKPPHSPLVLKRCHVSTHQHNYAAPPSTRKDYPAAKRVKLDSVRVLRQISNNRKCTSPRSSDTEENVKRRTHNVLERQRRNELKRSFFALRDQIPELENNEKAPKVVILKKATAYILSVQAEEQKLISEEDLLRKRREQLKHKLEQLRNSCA

SMILES | IC50
CC(=O)Nc1sc2c(c1-c1nc3cnccc3s1)CCNC2 [Compound 100, N-(3-(Thiazolo[4,5-c]pyridin-2-yl)-4,5,6,7-tetrahydrothieno[2,3-c]pyridin-2-yl)acetamide] | < 500 nM
CC(=O)Nc1sc2c(c1-c1nc3cnccc3s1)CCN(C(C)CN1CCOCC1)C2 (stereo not shown) [Compound 105, N-(6-(1-morpholinopropan-2-yl)-3-(thiazolo[4,5-c]pyridin-2-yl)-4,5,6,7-tetrahydrothieno[2,3-c]pyridin-2-yl)acetamide] | 500 to 5000 nM
CC(=O)Nc1sc2c(c1-c1nc3c(C)nccc3s1)CCNC2 [Compound 118, N-(3-(4-methylthiazolo[4,5-c]pyridin-2-yl)-4,5,6,7-tetrahydrothieno[2,3-c]pyridin-2-yl)acetamide] | < 500 nM
CC(=O)Nc1sc2c(c1-c1nc3cnccc3s1)C[C@H](C)N[C@H]2C (single isomer, unassigned) [Compound 111] | < 500 nM
O=C(CCNCCN1CCCCC1=O)Nc1sc2c(c1-c1nc3cnccc3s1)CCNC2 [Compound 158] | < 500 nM
O=C(CCNC1CCOC1)Nc1sc2c(c1-c1nc3cnccc3s1)CCNC2 (stereo not shown) [Compound 147] | < 500 nM
O=C(CCN1C[C@@H]2CC(F)(F)C[C@@H]2C1)Nc1sc2c(c1-c1nc3cnccc3s1)CCNC2 [Compound 129] | < 500 nM
O=C(CCNC1CC(O)C1)Nc1sc2c(c1-c1nc3cnccc3s1)CCNC2 (stereo not shown) [Compound 167] | < 500 nM
CC1CC(NCCC(=O)Nc2sc3c(c2-c2nc4cnccc4s2)CCNC3)C1 (stereo not shown) [Compound 133] | < 500 nM
Cc1nc(C)c(CNCCC(=O)Nc2sc3c(c2-c2nc4cnccc4s2)CCNC3)s1 [Compound 159] | 500 to 5000 nM
CN(CCC(=O)Nc1sc2c(c1-c1nc3cnccc3s1)CCNC2)Cc1cnc(Cl)s1 [Compound 157] | 500 to 5000 nM
O=C(CCN1CC2CCC(C1)O2)Nc1sc2c(c1-c1nc3cnccc3s1)CCNC2 [Compound 163] | 500 to 5000 nM
Cc1coc(CNCCC(=O)Nc2sc3c(c2-c2nc4cnccc4s2)CCNC3)n1 [Compound 140] | 500 to 5000 nM
CCN1[C@@H](C)Cc2c(sc(NC(C)=O)c2-c2nc3cnccc3s2)[C@@H]1C [Compound 120, N-((5S,7S)-6-ethyl-5,7-dimethyl-3-(thiazolo[4,5-c]pyridin-2-yl)-4,5,6,7-tetrahydrothieno[2,3-c]pyridin-2-yl)acetamide] | 500 to 5000 nM
O=C(CCNCC1CCC1)Nc1sc2c(c1-c1nc3cnccc3s1)CCNC2 [Compound 135] | < 500 nM
O=C(CCN1CC2COCC2C1)Nc1sc2c(c1-c1nc3cnccc3s1)CCNC2 (stereo not shown) [Compound 131] | < 500 nM
Cc1cc(CC(C)NCCC(=O)Nc2sc3c(c2-c2nc4cnccc4s2)CCNC3)on1 (stereo not shown) [Compound 156] | < 500 nM
COC1(C)CCN(CCC(=O)Nc2sc3c(c2-c2nc4cnccc4s2)CCNC3)CC1 [Compound 151] | < 500 nM
O=C(CCN1CC[C@@H]2NCC[C@@H]21)Nc1sc2c(c1-c1nc3cnccc3s1)CCNC2 [Compound 155] | < 500 nM
O=C(CCN1CCC(c2ccc(Cl)cc2)CC1)Nc1sc2c(c1-c1nc3cnccc3s1)CCNC2 [Compound 143] | 500 to 5000 nM
O=C(CCN1CC2CCC2C1)Nc1sc2c(c1-c1nc3cnccc3s1)CCNC2 (stereo not shown) [Compound 130] | < 500 nM
O=C(CCNC1CCNCC1)Nc1sc2c(c1-c1nc3cnccc3s1)CCNC2 [Compound 165] | < 500 nM
Cc1cc(C)n(CCNCCC(=O)Nc2sc3c(c2-c2nc4cnccc4s2)CCNC3)n1 [Compound 136] | 500 to 5000 nM
O=C(CCN1CC2(CNC2)C1)Nc1sc2c(c1-c1nc3cnccc3s1)CCNC2 [Compound 123] | < 500 nM
O=C(CCN1CCC2(CC2)C1)Nc1sc2c(c1-c1nc3cnccc3s1)CCNC2 [Compound 127] | < 500 nM
C[C@H](NCCC(=O)Nc1sc2c(c1-c1nc3cnccc3s1)CCNC2)C1CC1 [Compound 137] | < 500 nM
O=C(CCNC1CNCC1O)Nc1sc2c(c1-c1nc3cnccc3s1)CCNC2 (stereo not shown) [Compound 146] | < 500 nM

More lines, now with the values ahead:

IC50 | SMILES
5000 to 25000 nM | CC[C@H](C)N(CCC(=O)Nc1sc2c(c1-c1nc3cnccc3s1)CCNC2)Cc1ccccc1 [Compound 233, (S)-3-(Benzyl(sec-butyl)amino)-N-(3-(thiazolo[4,5-c]pyridin-2-yl)-4,5,6,7-tetrahydrothieno[2,3-c]pyridin-2-yl)propanamide hydrochloride]
< 500 nM | C[C@H]1NCCc2c1sc(NC(=O)CCN[C@@H]1C[C@H]3CNC[C@H]3C1)c2-c1nc2cnccc2s1 [Compound 249, N—((R)-7-methyl-3-(thiazolo[4,5-c]pyridin-2-yl)-4,5,6,7-tetrahydrothieno[2,3-c]pyridin-2-yl)-3-(((3aR,5s,6aS)-octahydrocyclopenta[c]pyrrol-5-yl)amino)propanamide]
5000 to 25000 nM | CN(CCC(=O)Nc1sc2c(c1-c1nc3cnccc3s1)CCNC2)Cc1nc2ccccc2s1 [Compound 205]
< 500 nM | Cc1ccc(CNCCC(=O)Nc2sc3c(c2-c2nc4cnccc4s2)CCNC3)s1 [Compound 185]
< 500 nM | O=C(CCNC1CC1)Nc1sc2c(c1-c1nc3cnccc3s1)CCNC2 [Compound 221, 3-(cyclopropylamino)-N-(3-(thiazolo[4,5-c]pyridin-2-yl)-4,5,6,7-tetrahydrothieno[2,3-c]pyridin-2-yl)propanamide]
< 500 nM | O=C(CCNCC1CCNC1)Nc1sc2c(c1-c1nc3cnccc3s1)CCNC2 (stereo not shown) [Compound 188]
< 500 nM | Cc1nc(CNCCC(=O)Nc2sc3c(c2-c2nc4cnccc4s2)CCNC3)no1 [Compound 180]
< 500 nM | O=C(CCNC[C@H]1CC2(CCNCC2)CO1)Nc1sc2c(c1-c1nc3cnccc3s1)CCNC2 [Compound 207]
< 500 nM | O=C(CCN[C@@H]1C2CCC1NC2)Nc1sc2c(c1-c1nc3cnccc3s1)CCNC2 (stereo partly shown) [Compound 173]
< 500 nM | O=C(CCN[C@H]1[C@@H]2CNC[C@@H]21)Nc1sc2c(c1-c1nc3cnccc3s1)CCNC2 [Compound 211]
5000 to 25000 nM | O=C(CCNCc1cnc2ccccn12)Nc1sc2c(c1-c1nc3cnccc3s1)CCNC2 [Compound 212]
500 to 5000 nM | Cc1nc(CN(C)CCC(=O)Nc2sc3c(c2-c2nc4cnccc4s2)CCNC3)no1 [Compound 182]
< 500 nM | CC(NCCC(=O)Nc1sc2c(c1-c1nc3cnccc3s1)CCNC2)c1ncc[nH]1 (stereo not shown) [Compound 201]
< 500 nM | O=C(CCN1CCc2[nH]ncc2C1)Nc1sc2c(c1-c1nc3cnccc3s1)CCNC2 [Compound 178]
500 to 5000 nM | O=C(CCNCc1noc2c1CNCC2)Nc1sc2c(c1-c1nc3cnccc3s1)CCNC2 [Compound 209]
500 to 5000 nM | Cc1cccc2c1CCN(CCC(=O)Nc1sc3c(c1-c1nc4cnccc4s1)CCNC3)C2 [Compound 199]
< 500 nM | O=C(CCN1CCC2COCC2C1)Nc1sc2c(c1-c1nc3cnccc3s1)CCNC2 (stereo not shown) [Compound 213]
< 500 nM | NC1CC(NCCC(=O)Nc2sc3c(c2-c2nc4cnccc4s2)CCNC3)C1 (stereo not shown) [Compound 195]
5000 to 25000 nM | CCN1CCc2c(sc(NC(C)=O)c2-c2nc3cnccc3s2)[C@H]1C [Compound 229, (R)—N-(6-ethyl-7-methyl-3-(thiazolo[4,5-c]pyridin-2-yl)-4,5,6,7-tetrahydrothieno[2,3-c]pyridin-2-yl)acetamide]
< 500 nM | COCC1CCCN1CCC(=O)Nc1sc2c(c1-c1nc3cnccc3s1)CCNC2 (stereo not shown) [Compound 169]
< 500 nM | CN(CCC(=O)Nc1sc2c(c1-c1nc3cnccc3s1)CCNC2)Cc1ccc2[nH]ccc2c1 [Compound 214]

What follows are compounds tested on human small lung cancer cell line H2171 (assay: Cell Viability Assay (ATPlite)). Settings: NCI-H2171, 72 h, H2171 cells, incubated for three days, ATPlite readout.
Format: cell-based
Procedure: Compounds of the invention were assayed for cell viability using the human small lung cancer cell line H2171 as described in the following protocol. Cells were counted and adjusted to 20,000 cells/mL. Using a Biotek EL406, 50 μL of cells in media were distributed into 384 well white plates from Thermo. Immediately after plating, compound in DMSO was distributed to plates. Compounds were added to plates using a 50 nL 384 well pin transfer manifold on a Janus workstation. Stocks were arrayed in 10 point dose response in DMSO stock in 384 well Greiner compound plates. After the addition of compounds, plates were incubated for three days in a 37° C. incubator. Cell viability was read out using ATPlite from Perkin Elmer. Lyophilized powder was resuspended in lysis buffer and diluted 1:2 with deionized water. 25 μL of this solution was added to each well using the Biotek liquid handler. Plates were incubated for 15 minutes at room temperature before signal was read on an Envision Plate Reader. The data from this assay are summarized in Table 3 below (H2171 activity).

SMILES | IC50
CC(=O)Nc1sc2c(c1-c1nc3cnccc3s1)CCNC2 [Compound 100, N-(3-(Thiazolo[4,5-c]pyridin-2-yl)-4,5,6,7-tetrahydrothieno[2,3-c]pyridin-2-yl)acetamide] | 500 to 5000 nM
CC(=O)Nc1sc2c(c1-c1nc3cnccc3s1)CCN(C(C)CN1CCOCC1)C2 (stereo not shown) [Compound 105, N-(6-(1-morpholinopropan-2-yl)-3-(thiazolo[4,5-c]pyridin-2-yl)-4,5,6,7-tetrahydrothieno[2,3-c]pyridin-2-yl)acetamide] | 500 to 5000 nM
CC(=O)Nc1sc2c(c1-c1nc3c(C)nccc3s1)CCNC2 [Compound 118, N-(3-(4-methylthiazolo[4,5-c]pyridin-2-yl)-4,5,6,7-tetrahydrothieno[2,3-c]pyridin-2-yl)acetamide] | < 500 nM
CC(=O)Nc1sc2c(c1-c1nc3cnccc3s1)C[C@H](C)N[C@H]2C (single isomer, unassigned) [Compound 111] | < 500 nM

Other lines, results leading:

IC50 | SMILES
500 to 5000 nM | CC[C@H](C)N(CCC(=O)Nc1sc2c(c1-c1nc3cnccc3s1)CCNC2)Cc1ccccc1 [Compound 233, (S)-3-(Benzyl(sec-butyl)amino)-N-(3-(thiazolo[4,5-c]pyridin-2-yl)-4,5,6,7-tetrahydrothieno[2,3-c]pyridin-2-yl)propanamide hydrochloride]
< 500 nM | C[C@H]1NCCc2c1sc(NC(=O)CCN[C@@H]1C[C@H]3CNC[C@H]3C1)c2-c1nc2cnccc2s1 [Compound 249, N—((R)-7-methyl-3-(thiazolo[4,5-c]pyridin-2-yl)-4,5,6,7-tetrahydrothieno[2,3-c]pyridin-2-yl)-3-(((3aR,5s,6aS)-octahydrocyclopenta[c]pyrrol-5-yl)amino)propanamide]
< 500 nM | CC(=O)Nc1sc2c(c1-c1nc3cnccc3s1)C[C@H](C)N[C@@H]2C [Compound 236]
